Measured values taken from patent US20060210520A1, “Macadamia lipid based surfactants and derivatives and process for preparing same” (Finetex, Inc., priority 2005, published 2006).

Assay: Analytical results of the Macadamia esters (Table I)
Type: physicochemical
Description: An analysis of the esters was conducted as to appearance, color, surface tension, spreading coefficient, freezing point, percentage of water, refractive index, and specific gravity.

Spreading Coeffecient (° C.) | Viscosity (CPS) | Interfacial Tension (25° C.) | Surface Tension (25° C.) | Substance
32.75 | 40 CPS | 7.75 | 31.5 | Isostearyl Macadamiate
32.15 | 120 CPS | 8.35 | 32.50 | Ceteareth-4 Macadamiate
34.00 | 80 CPS | 7.00 | 31.0 | PPG-3 Myristyl Ether Macadamiate
31.50 | 100 CPS | 8.50 | 32.00 | C12-15 Pareth-7 Macadamiate
